Laboratory results published in ChEMBL document CHEMBL4184299, “Regioselective and efficient enzymatic synthesis of antimicrobial andrographolide derivatives” (Bioorg Med Chem Lett, 2018).
Values after ≈ are worked out from the molar mass of the structure shown. Active and inactive are the calls of the source. No cut-off for these calls is given here.

How the values were obtained:
Rhizopus arrhizus = test: Antimicrobial activity against Rhizopus oryzae; format: functional
Aspergillus fumigatus = test: Antimicrobial activity against Aspergillus fumigatus; format: functional
Escherichia coli [1] = test: Antimicrobial activity against Escherichia coli; format: functional
Escherichia coli [2] = test: Induction of membrane permeability in Escherichia coli at MIC by DAPI/FITC/propidium iodide staining-based fluorescent microscopic analysis; format: functional, organism-based
[3] = Hemolytic activity in human RBC at 25 ug/ml relative to control; format: ADME, cell-based, Erythrocyte; settings: red blood cells (erythrocytes), read-out: Activity
Pseudomonas fluorescens = test: Antimicrobial activity against Pseudomonas fluorescens; format: functional
Escherichia coli [4] = test: Induction of membrane disruption in Escherichia coli assessed as blurred membranes at MIC after 60 mins by SEM analysis; format: functional, organism-based
Escherichia coli [5] = test: Induction of membrane disruption in Escherichia coli assessed as deflated membranes at MIC after 60 mins by SEM analysis; format: functional, organism-based
Candida albicans = test: Antimicrobial activity against Candida albicans; format: functional
Escherichia coli [6] = test: Disruption of membrane integrity in Escherichia coli assessed as protein leakage at MIC; format: functional, organism-based
Staphylococcus aureus = test: Antimicrobial activity against Staphylococcus aureus; format: functional
Escherichia coli [7] = test: Induction of membrane disruption in Escherichia coli assessed as translucent membranes at MIC after 60 mins by SEM analysis; format: functional, organism-based
Micrococcus luteus = test: Antimicrobial activity against Micrococcus luteus; format: functional

| MIC (Rhizopus arrhizus) [µg/mL] | MIC (Aspergillus fumigatus) [µg/mL] | MIC (Escherichia coli [1]) [µg/mL] | MIC (Pseudomonas fluorescens) [µg/mL] | MIC (Candida albicans) [µg/mL] | MIC (Staphylococcus aureus) [µg/mL] | MIC (Micrococcus luteus) [µg/mL] | Structure (SMILES) | Activity (Escherichia coli [2]) | hemolysis at 25 ug/ml [3] [%] | Activity (Escherichia coli [4]) | Activity (Escherichia coli [5]) | Activity (Escherichia coli [6]) | Activity (Escherichia coli [7]) |
| --- | --- | --- | --- | --- | --- | --- | --- | --- | --- | --- | --- | --- | --- |
| > 128 | > 128 | 4 (≈ 9.51 µM) | 16 (≈ 38 µM) | 64 (≈ 152 µM) | 8 (≈ 19 µM) | 32 (≈ 76.1 µM) | C=C1CC[C@@H]2[C@](C)(CO)[C@H](O)CC[C@@]2(C)[C@@H]1C/C=C1/C(=O)OC[C@H]1OC(=O)CCC | Active | 7.1 | Active | Active | Active | Active |
| > 128 | > 128 | 8 (≈ 19.7 µM) | 32 (≈ 78.7 µM) | 16 (≈ 39.4 µM) | 4 (≈ 9.84 µM) | 16 (≈ 39.4 µM) | C=C1CC[C@@H]2[C@](C)(CO)[C@H](O)CC[C@@]2(C)[C@@H]1C/C=C1/C(=O)OC[C@H]1OC(=O)CC | Active | 6.4 | Active | Active |  | Active |
| > 128 | > 128 | > 128 | > 128 | > 128 | > 128 | > 128 | C=C1CC[C@@H]2[C@](C)(CO)[C@H](O)CC[C@@]2(C)[C@@H]1C/C=C1/C(=O)OC[C@H]1O [ANDROGRAPHOLIDE] |  | 8.5 |  |  |  |  |
| > 128 | > 128 | 32 (≈ 63.4 µM) | 64 (≈ 127 µM) | > 128 | 16 (≈ 31.7 µM) | 64 (≈ 127 µM) | C=C1CC[C@@H]2[C@](C)(CO)[C@H](O)CC[C@@]2(C)[C@@H]1C/C=C1/C(=O)OC[C@H]1OC(=O)CCCCCCCCC |  | 35 |  |  | Active |  |
| > 128 | > 128 | 64 (≈ 120 µM) | > 128 | 32 (≈ 60.1 µM) | 16 (≈ 30 µM) | 16 (≈ 30 µM) | C=C1CC[C@@H]2[C@](C)(CO)[C@H](O)CC[C@@]2(C)[C@@H]1C/C=C1/C(=O)OC[C@H]1OC(=O)CCCCCCCCCCC |  | 46 |  |  | Active |  |
| > 128 | > 128 | 64 (≈ 163 µM) | 4 (≈ 10.2 µM) | 32 (≈ 81.5 µM) | 16 (≈ 40.8 µM) | 32 (≈ 81.5 µM) | C=C1CC[C@@H]2[C@](C)(CO)[C@H](O)CC[C@@]2(C)[C@@H]1C/C=C1/C(=O)OC[C@H]1OC(C)=O |  | 4.8 |  |  | Active |  |

| Structure (SMILES) | MIC (Rhizopus arrhizus) [µg/mL] | MIC (Aspergillus fumigatus) [µg/mL] | MIC (Escherichia coli [1]) [µg/mL] | MIC (Pseudomonas fluorescens) [µg/mL] | MIC (Candida albicans) [µg/mL] | MIC (Staphylococcus aureus) [µg/mL] | MIC (Micrococcus luteus) [µg/mL] | Activity (Escherichia coli [2]) | hemolysis at 25 ug/ml [3] [%] | Activity (Escherichia coli [4]) | Activity (Escherichia coli [5]) | Activity (Escherichia coli [6]) | Activity (Escherichia coli [7]) |
| --- | --- | --- | --- | --- | --- | --- | --- | --- | --- | --- | --- | --- | --- |
| C[C@@H]1[C@H](O)[C@@H](C)/C=C/C=C/C=C/C=C/C=C/C=C/C=C/[C@H](O[C@@H]2O[C@H](C)[C@@H](O)[C@H](N)[C@@H]2O)C[C@@H]2O[C@](O)(C[C@@H](O)C[C@@H](O)[C@H](O)CC[C@@H](O)C[C@@H](O)CC(=O)O[C@H]1C)C[C@H](O)[C@H]2C(=O)O [AMPHOTERICIN B] | 1 (≈ 1.08 µM) | 0.5 (≈ 0.541 µM) |  |  |  |  |  |  |  |  |  |  |  |
| CN[C@@H]1[C@@H](O)[C@@H](O[C@@H]2[C@@H](O)[C@H](O[C@H]3O[C@H](CN)CC[C@H]3N)[C@@H](N)C[C@H]2N)OC[C@]1(C)O.O=S(=O)(O)O |  |  |  | 0.5 |  | 0.5 |  |  |  |  |  |  |  |
